In PMC2829385 (The Journal of investigative dermatology, 2009):
Values joined by “and” are separate entries in the source; they are usually repeats but may differ in a detail not shown here. Identical values can stand only once. “Also recorded” adds a separate entry of the source. Counter-ions that a name gives are not always drawn.

How the values were obtained:
[1] = tested on: primary human keratinocytes; assay: UVB-induced apoptosis, sub-2N DNA content by flow cytometry; assay type: cell-based
[2] = humans drinking 2–5 cups of coffee per day; ref de Leon et al., 2003; cited from earlier work
ATM = conditions: read-out: IC50 for ATM; ref Sarkaria et al., 1999; cited from earlier work
[3] = tested on: ATR-dependent serine 345 residue of Chk1; assay: Western blot of UVB-induced Chk1 Ser345 phosphorylation in keratinocytes; assay type: cell-based, human; conditions: 2 mM caffeine, 75 mJ/cm^2 UVB (Figure 2a)
[4] = tested on: primary human keratinocytes; assay: Western blot of UVB-induced caspase 3 and PARP cleavage in keratinocytes; assay type: cell-based; conditions: 2 mM caffeine, 75 mJ/cm^2 UVB, 8 h (Figure 1a)
[5] = tested on: UV-induced skin carcinogenesis; conditions: mice, oral caffeine as drinking fluid 0.4 mg/ml; ref Huang et al., 1997; cited from earlier work
[6] = tested on: phosphorylation of Chk1 on Ser345; conditions: mice, oral caffeine in drinking water 0.4 mg/ml (2 mM); ref Lu et al., 2008; cited from earlier work
cAMP phosphodiesterase = conditions: read-out: IC50 cAMP phosphodiesterase; ref Butcher and Sutherland, 1962; cited from earlier work

| SMILES | proportion of cells undergoing apoptosis (sub-2N DNA content) ([1]; 2 mM caffeine 30 min before 75 mJ/cm^2 UVB, 24 h, UVB alone 10% (Figure 1b)) [%] | proportion of cells undergoing apoptosis (sub-2N DNA content) ([1]; 2 mM caffeine alone (scrambled siRNA), 75 mJ/cm^2 UVB, 24 h (Figure 2c)) [%] | proportion of cells undergoing apoptosis (sub-2N DNA content) ([1]; 2 mM caffeine plus ATR siRNA, 75 mJ/cm^2 UVB, 24 h (Figure 2c)) [%] | increase in UVB-induced apoptosis vs UVB alone (relative cell death) ([1]; 2 mM caffeine pretreatment, 75 mJ/cm^2 UVB (Figure 1c)) | plasma concentration of caffeine [2] | IC50 (ATM) [µM] | effect on UVB-induced Chk1 phosphorylation at serine 345 [3] | effect on UVB-induced cleavage of caspase 3 and PARP [4] | effect on UV-induced skin carcinogenesis [5] | effect on UVB-induced phosphorylation of Chk1 on Ser345 in the epidermis [6] | IC50 (cAMP phosphodiesterase) [µM] | effect on UVB-induced apoptosis ([1]; doses up to 300 μM, 30 min before 75 mJ/cm^2 UVB, 24 h (Figure 1d)) |
| --- | --- | --- | --- | --- | --- | --- | --- | --- | --- | --- | --- | --- |
| Cn1c(=O)c2c(ncn2C)n(C)c1=O [caffeine, Caffeine] | 24 | 42 | 48 | two- to three-fold increase; also recorded: more than doubled | 3.2 mg/l and 16 μM | 200 | inhibited | augmented | inhibits | markedly inhibited | 3000 |  |
| CCCC(=O)Nc1ncnc2c1ncn2[C@@H]1O[C@@H]2COP(=O)(O)O[C@H]2[C@H]1OC(=O)CCC [dibutyryl cAMP, N^6,2′-O-Dibutyryladenosine 3′,5′-cyclic monophosphate sodium salt] |  |  |  |  |  |  |  |  |  |  |  | no effect |
